The target in this test is T1, GCS (Canis lupus familiaris, UniProt A0A8I3MXG6).
T1 construct: endogenous in cells; host or cells: MDCK (Madin-Darby canine kidney) cells, whole-cell lysate
T1 sequence (A0A8I3MXG6 1-394): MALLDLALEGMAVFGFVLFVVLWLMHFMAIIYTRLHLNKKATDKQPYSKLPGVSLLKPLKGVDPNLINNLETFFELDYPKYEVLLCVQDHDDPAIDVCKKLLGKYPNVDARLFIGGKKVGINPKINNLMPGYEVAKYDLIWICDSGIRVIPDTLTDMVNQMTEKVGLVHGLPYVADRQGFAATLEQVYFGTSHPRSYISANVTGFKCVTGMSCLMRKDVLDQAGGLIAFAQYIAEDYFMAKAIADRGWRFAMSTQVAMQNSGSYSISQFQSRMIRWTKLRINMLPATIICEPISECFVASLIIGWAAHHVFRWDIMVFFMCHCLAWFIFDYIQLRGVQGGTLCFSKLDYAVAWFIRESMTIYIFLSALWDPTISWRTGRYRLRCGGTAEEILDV
In words: GCS enzymatic assay (MDCK cell lysate, NBD-ceramide to glucosylceramide, LC/MS). Format: biochemical, canine. The note with it: Table 2, the table does not say which of the assays; for IC50: class symbols A, B, C, read-out: Data Range (IC50 values); for Data Range (% inhibition): class symbols D, E, F, NA (not active). The gist of the method:
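Dog MDCK cell lysate served as enzyme source, with NBD-ceramide turned over to glucosylceramide and 0.1% DMSO as mock control. The reaction was stopped with acetonitrile. Both lipids were quantified by LC/MS/MS in ESI positive MRM mode against a tolbutamide internal standard, giving IC50 or percent inhibition.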

Here are results for 22 compounds from patent US10239832B2, “N-(1-hydroxy-3-(pyrrolidinyl)propan-2-yl)pyrrolidine-3-carboxamide derivatives as glucosylceramide synthase inhibitors” (BIOMARIN PHARMACEUTICAL INC., priority 2013, dated 2019).

In the case of `O=C(N[C@H](CN1CCCC1)[C@H](O)c1ccc2c(c1)OCCO2)C1CCN(c2ccc(F)cc2)C1` (stereo partly drawn) [Compound 24B, N-((1R,2R)-1-(2,3-dihydrobenzo[b][1,4]dioxin-6-yl)-1-hydroxy-3-(pyrrolidin-1-yl)propan-2-yl)-1-(4-fluorophenyl)pyrrolidine-3-carboxamide], the IC50 was in the range of 0.001 to 0.03 µM. As for `O=C(N[C@H](CN1CCCC1)[C@H](O)c1ccc2c(c1)OCCO2)[C@H]1CCN(c2ccc(F)cc2)C1` [Compound 24C, (S)-N-((1R,2R)-1-(2,3-dihydrobenzo[b][1,4]dioxin-6-yl)-1-hydroxy-3-(pyrrolidin-1-yl)propan-2-yl)-1-(4-fluorophenyl)pyrrolidine-3-carboxamide], the “Data Range (% inhibition)” value was “NA (not active—a negative value was generated for % inhibition)”. Regarding `O=C(N[C@H](CN1CCC1)[C@H](O)c1cc(F)c2c(c1)OCCO2)[C@@H]1CCN(c2ccc(Cl)cc2)C1` [Compound 25, (R)-N-((1R,2R)-3-(azetidin-1-yl)-1-(8-fluoro-2,3-dihydrobenzo[b][1,4]dioxin-6-yl)-1-hydroxypropan-2-yl)-1-(4-chlorophenyl)pyrrolidine-3-carboxamide], the IC50 fell in the range of 0.001 to 0.03 µM. `O=C(N[C@H](CN1CCC1)[C@H](O)c1cc(F)c2c(c1)OCCO2)[C@H]1CCN(c2ccc(Cl)cc2)C1` [Compound 25B, (S)-N-((1R,2R)-3-(azetidin-1-yl)-1-(8-fluoro-2,3-dihydrobenzo[b][1,4]dioxin-6-yl)-1-hydroxypropan-2-yl)-1-(4-chlorophenyl)pyrrolidine-3-carboxamide]: the “Data Range (% inhibition)” value is on record as “F (1-49% (or less than 50%))”.

For the compound `O=C(N[C@H](CN1CCCC1)[C@H](O)c1ccc2c(c1)OCCO2)C1CCN(C2CCCCC2)C1` (stereo partly drawn) [Compound 26, 1-cyclohexyl-N-((1R,2R)-1-(2,3-dihydrobenzo[b][1,4]dioxin-6-yl)-1-hydroxy-3-(pyrrolidin-1-yl)propan-2-yl)pyrrolidine-3-carboxamide], the “Data Range (% inhibition)” value is reported as “NA (not active—a negative value was generated for % inhibition)”. On the same count and under the same terms, then `O=C(N[C@H](CN1CCCC1)[C@H](O)c1ccc(OC2CC2)nc1)[C@@H]1CCN(c2ccc(F)cc2)C1` [Compound 27, (R)-N-((1R,2R)-1-(6-cyclopropoxypyridin-3-yl)-1-hydroxy-3-(pyrrolidin-1-yl)propan-2-yl)-1-(4-fluorophenyl)pyrrolidine-3-carboxamide], with “E (50-74% (or less than 75%))”; and `O=C(N[C@H](CN1CCCC1)[C@H](O)c1ccc(OC2CC2)nc1)[C@H]1CCN(c2ccc(F)cc2)C1` [Compound 27C, (S)-N-((1R,2R)-1-(6-cyclopropoxypyridin-3-yl)-1-hydroxy-3-(pyrrolidin-1-yl)propan-2-yl)-1-(4-fluorophenyl)pyrrolidine-3-carboxamide], with “F (1-49% (or less than 50%))”. Same read-out and setting: then `O=C(N[C@H](CN1CCCC1)[C@H](O)c1ccc2c(c1)OCCO2)[C@@H]1CCN(c2ccc(Cl)cn2)C1` [Compound 28, (R)-1-(5-chloropyridin-2-yl)-N((1R,2R)-1-(2,3-dihydrobenzo[b][1,4]dioxin-6-yl)-1-hydroxy-3-(pyrrolidin-1-yl)propan-2-yl)pyrrolidine-3-carboxamide], with “E (50-74% (or less than 75%))”; and `O=C(N[C@H](CN1CCCC1)[C@H](O)c1ccc2c(c1)OCCO2)C1CCN(c2ccc(Cl)cn2)C1` (stereo partly drawn) [Compound 28C, 1-(5-chloropyridin-2-yl)-N-((1R,2R)-1-(2,3-dihydrobenzo[b][1,4]dioxin-6-yl)-1-hydroxy-3-(pyrrolidin-1-yl)propan-2-yl)pyrrolidine-3-carboxamide], with “F (1-49% (or less than 50%))”; and `O=C(N[C@H](CN1CCCC1)[C@H](O)c1ccc2c(c1)OCCO2)[C@H]1CCN(c2ccc(Cl)cn2)C1` [Compound 28D, (S)-1-(5-chloropyridin-2-yl)-N-((1R,2R)-1-(2,3-dihydrobenzo[b][1,4]dioxin-6-yl)-1-hydroxy-3-(pyrrolidin-1-yl)propan-2-yl)pyrrolidine-3-carboxamide], with “NA (not active—a negative value was generated for % inhibition)”.

Consider `CC(C)Oc1ccc([C@@H](O)[C@@H](CN2CCCC2)NC(=O)[C@@H]2CCN(c3ccc(Cl)cc3)C2)cn1` [Compound 29, (R)-1-(4-chlorophenyl)-N-((1R,2R)-1-hydroxy-1-(6-isopropoxypyridin-3-yl)-3-(pyrrolidin-1-yl)propan-2-yl)pyrrolidine-3-carboxamide], for which the “Data Range (% inhibition)” value is “F (1-49% (or less than 50%))”. Still for that read-out and setting: under `CC(C)Oc1ccc([C@@H](O)[C@@H](CN2CCCC2)NC(=O)[C@H]2CCN(c3ccc(Cl)cc3)C2)cn1` [Compound 29B, (S)-1-(4-chlorophenyl)-N-((1R,2R)-1-hydroxy-1-(6-isopropoxypyridin-3-yl)-3-(pyrrolidin-1-yl)propan-2-yl)pyrrolidine-3-carboxamide] stands “F (1-49% (or less than 50%))”.

On to `CCCCN1CCC(C(=O)N[C@H](CN2CCCC2)[C@H](O)c2ccc3c(c2)OCCO3)C1` (stereo partly drawn) [Compound 30, 1-butyl-N-((1R,2R)-1-(2,3-dihydrobenzo[b][1,4]dioxin-6-yl)-1-hydroxy-3-(pyrrolidin-1-yl)propan-2-yl)pyrrolidine-3-carboxamide], for which the “Data Range (% inhibition)” value was “NA (not active—a negative value was generated for % inhibition)”. With `CC(C)Oc1ccc([C@@H](O)[C@@H](CN2CCCC2)NC(=O)[C@@H]2CCN(c3ccc(F)cc3)C2)cn1` [Compound 31, (R)-1-(4-fluorophenyl)-N-((1R,2R)-1-hydroxy-1-(6-isopropoxypyridin-3-yl)-3-(pyrrolidin-1-yl)propan-2-yl)pyrrolidine-3-carboxamide], the IC50 was in the range of 0.1 to 1 µM. Same read-out and setting: under `O=C(N[C@H](CN1CCCC1)[C@H](O)c1ccc(OC2CCOCC2)c(Cl)c1)[C@@H]1CCN(c2ccc(F)cc2)C1` [Compound 32, (R)-N-((1R,2R)-1-(3-chloro-4-((tetrahydro-2H-pyran-4-yl)oxy)phenyl)-1-hydroxy-3-(pyrrolidin-1-yl)propan-2-yl)-1-(4-fluorophenyl)pyrrolidine-3-carboxamide] stands 0.001 to 0.03 µM. As for `O=C(N[C@H](CN1CCCC1)[C@H](O)c1ccc(OC2CCOCC2)c(Cl)c1)[C@H]1CCN(c2ccc(F)cc2)C1` [Compound 32A, (S)-N-((1R,2R)-1-(3-chloro-4-((tetrahydro-2H-pyran-4-yl)oxy)phenyl)-1-hydroxy-3-(pyrrolidin-1-yl)propan-2-yl)-1-(4-fluorophenyl)pyrrolidine-3-carboxamide], the “Data Range (% inhibition)” value is on record as “F (1-49% (or less than 50%))”. On the same count and under the same terms, then `O=C(N[C@H](CN1CCCC1)[C@H](O)c1ccc(OCC(F)(F)F)nc1)[C@@H]1CCN(c2ccc(Cl)cc2)C1` [Compound 33, (R)-1-(4-chlorophenyl)-N-((1R,2R)-1-hydroxy-3-(pyrrolidin-1-yl)-1-(6-(2,2,2-trifluoroethoxy)pyridin-3-yl)propan-2-yl)pyrrolidine-3-carboxamide], with “F (1-49% (or less than 50%))”. `O=C(N[C@H](CN1CCCC1)[C@H](O)c1ccc(OCC(F)(F)F)nc1)[C@H]1CCN(c2ccc(Cl)cc2)C1` [Compound 33A, (S)-1-(4-chlorophenyl)-N-((1R,2R)-1-hydroxy-3-(pyrrolidin-1-yl)-1-(6-(2,2,2-trifluoroethoxy)pyridin-3-yl)propan-2-yl)pyrrolidine-3-carboxamide]: the “Data Range (% inhibition)” value is given as “NA (not active—a negative value was generated for % inhibition)”.

Regarding `O=C(N[C@H](CN1CCCC1)[C@H](O)c1ccc(OCC(F)(F)F)nc1)[C@@H]1CCN(c2ccc(F)cc2)C1` [Compound 34, (R)-1-(4-fluorophenyl)-N-((1R,2R)-1-hydroxy-3-(pyrrolidin-1-yl)-1-(6-(2,2,2-trifluoroethoxy)pyridin-3-yl)propan-2-yl)pyrrolidine-3-carboxamide], the “Data Range (% inhibition)” value was “E (50-74% (or less than 75%))”. On the same count and under the same terms, then `O=C(N[C@H](CN1CCCC1)[C@H](O)c1ccc(OCC(F)(F)F)nc1)[C@H]1CCN(c2ccc(F)cc2)C1` [Compound 34A, (S)-1-(4-fluorophenyl)-N-((1R,2R)-1-hydroxy-3-(pyrrolidin-1-yl)-1-(6-(2,2,2-trifluoroethoxy)pyridin-3-yl)propan-2-yl)pyrrolidine-3-carboxamide], with “NA (not active—a negative value was generated for % inhibition)”.

For `O=C(N[C@H](CN1CCCC1)[C@H](O)c1cc(F)c2c(c1)OCCO2)[C@@H]1CCN(c2ccc(F)cc2)C1` [Compound 35, (R)-N-((1R,2R)-1-(8-fluoro-2,3-dihydrobenzo[b][1,4]dioxin-6-yl)-1-hydroxy-3-(pyrrolidin-1-yl)propan-2-yl)-1-(4-fluorophenyl)pyrrolidine-3-carboxamide], the IC50 was in the range of 0.001 to 0.03 µM. The same measure, in the same setting: under `O=C(N[C@H](CN1CCCC1)[C@H](O)c1cc(F)c2c(c1)OCCO2)[C@H]1CCN(c2ccc(F)cc2)C1` [Compound 35A, (S)-N-((1R,2R)-1-(8-fluoro-2,3-dihydrobenzo[b][1,4]dioxin-6-yl)-1-hydroxy-3-(pyrrolidin-1-yl)propan-2-yl)-1-(4-fluorophenyl)pyrrolidine-3-carboxamide] stands 0.001 to 0.03 µM.

One may read the IC50 as the concentration needed to halve the response being measured.
